In patent US20260000656A1, “ANTIFUNGAL AGENTS WITH ENHANCED ACTIVITY IN ACIDIC PH” (Scynexis, Inc., priority 2017, published 2026):
In brackets after ≈: the same amount, converted by molar mass. Like-named read-outs stand apart in the source and are kept apart here.

Tested on: C. glabrata isolates
Assay: Broth microdilution susceptibility (CLSI M27-A3) at different medium pH
Format: cell-based, Candida glabrata
Conditions: for MIC50 / MIC90 / MIC: Nakaseomyces glabratus, 24 h; for MIC50: read-out: MIC50; for MIC90: read-out: MIC90
Experimental: Ten strains each of C. glabrata and C. albicans vaginal isolates were tested. The strains were obtained from recent clinical trial patients with vulvovaginal candidiasis (VVC) prior to treatment. Candida strains were obtained from the Mycology Reference Library (MRL) at Case Western Reserve University School of Medicine, Ohio, United States.
Susceptibility testing was performed using a broth microdilution method, according to CLSI M27-A3 guidelines (CLSI. 2008. Reference Method for Broth Dilution Antifungal Susceptibility Testing of Yeasts; Approved Standard—Third Edition. Clinical and Laboratory Standards Institute, CLSI document M27-A3). Antifungals and concentrations tested were SCY-078 and micafungin (both at concentrations within the range of 0.015 to 8 μg/ml) and fluconazole (at concentrations within the range of 0.125 to 64 μg/ml). A 0.1-ml C. albicans and C. glabrata inoculum of 0.5-2.5×10^3 blastospores/ml in RPMI 1640 medium was added to each microdilution well. ATCC strains of Candida parapsilosis and Candida krusei QC isolates were also included concurrently to ensure quality control. Antifungal susceptibility testing was carried out for each isolate in RPMI 1640 at pH 7 (to mimic RPMI medium used in testing the susceptibility of yeast by the CLSI M-27A3 document), pH 5.7, and pH 4.5 (to mimic the pH of the vaginal cavity) by adjusting the pH of the media using NaOH or HCl. […] Agents Chemother., 43: 1383-1386 (1999).
[…] SCY-078 powder was manufactured by Avista, Laboratories, NC. Micafungin and fluconazole were sourced from LGM Pharma.

[1] = pH 4.5, 50% inhibition, pH 4.5, 24 h, 10 vaginal isolates
[2] = pH 4.5, 100% inhibition, pH 4.5, 24 hours, 10 isolates
[3] = pH 5.72, 50% inhibition, pH 5.72, 24 h, 10 vaginal isolates
[4] = pH 5.72, 100% inhibition, pH 5.72, 24 hours, 10 isolates

- MIC range (50% inhibition, pH 4.5, 24 h, 10 vaginal isolates): 0.031 to 0.063 µg/mL
- MIC range (50% inhibition, pH 5.72, 24 h, 10 vaginal isolates): 0.5 µg/mL (≈ 0.685 µM)
- MIC range (50% inhibition, pH 7.0, 24 h, 10 vaginal isolates): 0.5 to 1 µg/mL
- MIC range (100% inhibition, pH 4.5, 24 hours, 10 isolates): 0.063 to 0.125 µg/mL
- MIC range (100% inhibition, pH 5.72, 24 hours, 10 isolates): 1 µg/mL (≈ 1.37 µM)
- MIC range (100% inhibition, pH 7.0, 24 hours, 10 isolates): 1 to 2 µg/mL
- reduction in MIC50 at pH 4.5 compared to the MIC50 at pH 7.0 (C. glabrata isolates): 16 fold
- MIC50 [1]: 0.063 µg/mL (≈ 0.0863 µM)
- MIC90 [1]: 0.063 µg/mL (≈ 0.0863 µM)
- MIC50 [2]: 0.125 µg/mL (≈ 0.171 µM)
- MIC90 [2]: 0.125 µg/mL (≈ 0.171 µM)
- MIC (pH 4.5, C. glabrata MRL 32075, pH 4.5, 24 hours, read-out: MIC (50% inhibition)): 0.063 µg/mL (≈ 0.0863 µM)
- MIC (pH 4.5, C. glabrata MRL 32075, pH 4.5, 24 hours, read-out: MIC (100% inhibition)): 0.125 µg/mL (≈ 0.171 µM)
- MIC (pH 4.5, C. glabrata MRL 32232, pH 4.5, 24 hours, read-out: MIC (50% inhibition)): 0.063 µg/mL (≈ 0.0863 µM)
- MIC (pH 4.5, C. glabrata MRL 32232, pH 4.5, 24 hours, read-out: MIC (100% inhibition)): 0.125 µg/mL (≈ 0.171 µM)
- MIC (pH 4.5, C. glabrata MRL 32626, pH 4.5, 24 hours, read-out: MIC (50% inhibition)): 0.063 µg/mL (≈ 0.0863 µM)
- MIC (pH 4.5, C. glabrata MRL 32626, pH 4.5, 24 hours, read-out: MIC (100% inhibition)): 0.125 µg/mL (≈ 0.171 µM)
- MIC (pH 4.5, C. glabrata MRL 32993, pH 4.5, 24 hours, read-out: MIC (50% inhibition)): 0.031 µg/mL (≈ 0.0425 µM)
- MIC (pH 4.5, C. glabrata MRL 32993, pH 4.5, 24 hours, read-out: MIC (100% inhibition)): 0.063 µg/mL (≈ 0.0863 µM)
- MIC (pH 4.5, C. glabrata MRL 33204, pH 4.5, 24 hours, read-out: MIC (50% inhibition)): 0.031 µg/mL (≈ 0.0425 µM)
- MIC (pH 4.5, C. glabrata MRL 33204, pH 4.5, 24 hours, read-out: MIC (100% inhibition)): 0.063 µg/mL (≈ 0.0863 µM)
- MIC (pH 4.5, C. glabrata MRL 33960, pH 4.5, 24 hours, read-out: MIC (50% inhibition)): 0.031 µg/mL (≈ 0.0425 µM)
- MIC (pH 4.5, C. glabrata MRL 33960, pH 4.5, 24 hours, read-out: MIC (100% inhibition)): 0.063 µg/mL (≈ 0.0863 µM)
- MIC (pH 4.5, C. glabrata MRL 33961, pH 4.5, 24 hours, read-out: MIC (50% inhibition)): 0.063 µg/mL (≈ 0.0863 µM)
- MIC (pH 4.5, C. glabrata MRL 33961, pH 4.5, 24 hours, read-out: MIC (100% inhibition)): 0.063 µg/mL (≈ 0.0863 µM)
- MIC (pH 4.5, C. glabrata MRL 34339, pH 4.5, 24 hours, read-out: MIC (50% inhibition)): 0.063 µg/mL (≈ 0.0863 µM)
- MIC (pH 4.5, C. glabrata MRL 34339, pH 4.5, 24 hours, read-out: MIC (100% inhibition)): 0.125 µg/mL (≈ 0.171 µM)
- MIC (pH 4.5, C. glabrata MRL 34407, pH 4.5, 24 hours, read-out: MIC (50% inhibition)): 0.063 µg/mL (≈ 0.0863 µM)
- MIC (pH 4.5, C. glabrata MRL 34407, pH 4.5, 24 hours, read-out: MIC (100% inhibition)): 0.125 µg/mL (≈ 0.171 µM)
- MIC (pH 4.5, C. glabrata MRL 34576, pH 4.5, 24 hours, read-out: MIC (50% inhibition)): 0.063 µg/mL (≈ 0.0863 µM)
- MIC (pH 4.5, C. glabrata MRL 34576, pH 4.5, 24 hours, read-out: MIC (100% inhibition)): 0.125 µg/mL (≈ 0.171 µM)
- MIC50 [3]: 0.5 µg/mL (≈ 0.685 µM)
- MIC90 [3]: 0.5 µg/mL (≈ 0.685 µM)
- MIC50 [4]: 1 µg/mL (≈ 1.37 µM)
- MIC90 [4]: 1 µg/mL (≈ 1.37 µM)
- MIC (pH 5.72, C. glabrata MRL 32075, pH 5.72, 24 hours, read-out: MIC (50% inhibition)): 0.5 µg/mL (≈ 0.685 µM)
- MIC (pH 5.72, C. glabrata MRL 32075, pH 5.72, 24 hours, read-out: MIC (100% inhibition)): 1 µg/mL (≈ 1.37 µM)
- MIC (pH 5.72, C. glabrata MRL 32232, pH 5.72, 24 hours, read-out: MIC (50% inhibition)): 0.5 µg/mL (≈ 0.685 µM)
- MIC (pH 5.72, C. glabrata MRL 32232, pH 5.72, 24 hours, read-out: MIC (100% inhibition)): 1 µg/mL (≈ 1.37 µM)
- MIC (pH 5.72, C. glabrata MRL 32626, pH 5.72, 24 hours, read-out: MIC (50% inhibition)): 0.5 µg/mL (≈ 0.685 µM)
SMILES: CC(C)[C@@H](C)[C@@]1(C)CC[C@]2(C)[C@H]3CC[C@@H]4[C@@]5(COC[C@]4(C)[C@@H](OC[C@](C)(N)C(C)(C)C)[C@H](n4ncnc4-c4ccncc4)C5)C3=CC[C@@]2(C)[C@@H]1C(=O)O [SCY-078]
